Calls of active or inactive are those of the source. No cut-off for these calls is given here.

This assay deals with HT-29. The experiment in a line: Antiproliferative activity against human HT-29 cells at 100 uM up to 15 hrs by non-radioactive cell proliferation assay. It counts as functional, cell-based.
`CC[C@H](C)[C@@H]1OC(=O)C(C)(C)[C@@H](O)[C@@H](Cc2ccccc2)OC(=O)[C@H](C)OC(=O)[C@@H](NC(=O)c2cccc(N)c2O)[C@H](C)OC1=O`: the result was inactive. For the compound `CC(C)[C@@H]1OC(=O)[C@@H](NC(=O)c2cccc(NC=O)c2O)[C@H](C)OC(=O)[C@H](C(C)C)OC(=O)C(C)(C)[C@@H](O)[C@@H](Cc2ccccc2)OC1=O`, the outcome was inactive. In the case of `CC[C@H](C)[C@@H]1OC(=O)C(C)(C)[C@@H](O)[C@@H](Cc2ccccc2)OC(=O)[C@H](C)OC(=O)[C@@H](NC(=O)c2cccc(NC=O)c2O)[C@H](C)OC1=O`, the result was inactive. Take `CC(C)[C@@H]1OC(=O)[C@@H](NC(=O)c2cccc(N)c2O)[C@H](C)OC(=O)[C@H](C(C)C)OC(=O)C(C)(C)[C@@H](O)[C@@H](Cc2ccccc2)OC1=O`: the outcome was inactive. Turning to `CC[C@H](C)[C@@H]1OC(=O)C(C)(C)[C@@H](O)[C@@H](Cc2ccccc2)OC(=O)[C@H](C(C)C)OC(=O)[C@@H](NC(=O)c2cccc(NC=O)c2O)[C@H](C)OC1=O`, the result was inactive. For the compound `CC[C@H](C)[C@@H]1OC(=O)C(C)(C)[C@@H](O)[C@@H](Cc2ccccc2)OC(=O)[C@H](C(C)C)OC(=O)[C@@H](NC(=O)c2cccc(N)c2O)[C@H](C)OC1=O`, the result was inactive.

Values taken from ChEMBL document CHEMBL2417417, “Chemical variation from the neoantimycin depsipeptide assembly line” (Bioorg Med Chem Lett, 2013).
